Here are results for 7 substances from patent US20230313181A1, “HISTIDINE-LYSINE POLYMERS AND METHODS FOR DELIVERING MRNA USING THE SAME” (UNIVERSITY OF MARYLAND, BALTIMORE, priority 2019, published 2023).

Entries after “also recorded” stand apart in the source; their conditions may differ. Where no end group is shown, it is not given here.

The conditions of series [1]: prior studies [27]; cited from earlier work.
For another series, the system named is mRNA. Put plainly: Heparin displacement assays (gel electrophoresis and Sybr Gold dye intercalation). The format is physicochemical. The conditions noted are these: HK:mRNA 4:1 wt/wt. On the procedure: FIG. 4. Heparin Displacement Assays. After HK polyplexes were formed (wt:wt; HK:mRNA; 4 μg:1 μg), different concentrations of heparin […] were incubated with these for 30 min. A. Gel Retardation. The HK polyplexes were loaded on the agarose gel (1%), and electrophoresis was carried out and stained with Sybr Gold. B. Fluorescent dye intercalation. After the HK polyplexes were formed and incubated with several concentrations of heparin, the Sybr Gold nucleic acid dye was incubated with the HK polyplexes for 5 mins. Fluorescence was then measured by a microplate fluorimeter (λex=497 nm, λem=520 nm) (SynergyMx, BioTek). *, P<0.05; ***, P<0.001; H3K4b or H2K vs. H3K(+H)4b.
Heparin Displacement Assays. Heparin displacement assays of HK polyplexes were done with the dye intercalation assay and with gel electrophoresis. A fluorescent assay assessed polyplexes of HK polymer and mRNA (4:1 wt/wt ratio; polymer:mRNA) formed in RNAse/DNAase free water (Corning, Manassas, VA). HK polyplexes were prepared as described previously, followed by the addition of diluted Syber Gold. For detection, working dilutions of the polyplexes (1/5 of volume), water (3/5) and Sybr Gold dye (1/5, 0.2×) were incubated for 5 minutes, and fluorescence was measured by a fluorimeter (Ex=497 nm, Em=520 nm) (SynergyMx, BioTek, Winooski, VT). The control sample was prepared with the same amount of mRNA, water, and Sybr Gold dye. For the heparin displacement, instead of water, heparin salt (Sigma-Aldrich, St. Louis, MO) solutions at different concentrations (0.5, 1, 1.5, 2, 3 μg/μl) were used, and the HK polyplexes were incubated at 37° C. for 30 min before addition of Sybr Gold.
Displacement of mRNA from HK polyplexes with heparin was also done with gel electrophoresis. After HK polyplexes were formed, different concentrations of heparin (0.5, 1.0, 1.5, 2.0, 3.0 μg/μl; volume 20 μl) were incubated with these at 37° C. for 30 min. The polyplexes were then loaded on the agarose gel (1%; 10× BlueJuice Gel loading buffer), and electrophoresis was carried out and stained with SG as described above. […]

The conditions of series [2]: prior studies [34, 35, 45]; cited from earlier work.
The next series concerns MDA-MB-231 cells. Put plainly: In vitro mRNA transfection with HK polyplexes (luciferase mRNA, luciferase activity). The format is cell-based. The conditions noted are these: for RLU/μg-Protein (luciferase activity): mRNA 1 μg, 24 h; for effectiveness as carrier of mRNA (in words): luciferase mRNA, HK polyplex; for mRNA transfection relative to H3K(+H)4b (in words): 4:1 ratio (HK:mRNA). As to the method: FIG. 1. Comparison of H3K(+H)4b and H3K4b peptides as carriers of mRNA. To form the HK polyplexes, the mRNA (1 μg) was mixed with 3 different ratios of the HK ([…]) polymer for 30 minutes. The HK polyplexes were then added to the cells for 24 h before the luciferase activity was measured. ****, H3K(+H)4b vs H3K4b, P<0.0001.
In vitro mRNA Transfection. Several HK polymers were examined for their ability to carry a luciferase-expressing mRNA (CleanCap Firefly Luciferase mRNA, Trilink Biotechnologies, Inc, San Diego, CA) into MDA-MB-231 cells (America Type Tissue Culture, Manassas, VA). In brief, 3×10^4 cells were plated into a 24-well plate containing 500 μl of DMEM and 10% fetal bovine serum (ThermoFisher Scientific, Waltham, MA). After 24 h, when the cells were 60 to 80% confluent, the media in each well was changed to Opti-MEM (ThermoFisher Scientific). To prepare HK polyplexes, mRNA (1 μg) in 50 μl of Opti-MEM was briefly mixed well with one of the HK polymers (4 to 12 μg) and maintained at room temperature for 30 min. This polyplex was then added dropwise to the cells. After four h, the Opti-MEM media was removed and replaced with 0.5 ml of DMEM/10% serum (0.5 ml). Twenty-four hours later, the cells were lysed, and the luciferase activity (Promega Corporation, Madison, WI) was measured.
To obtain the data in Table 4, luciferase-expressing mRNA (1 μg) in 50 μl of Opti-MEM was briefly mixed with one of the HK polymers (4, 8, or 12 μg) and maintained at room temperature for 30 min. The resulting polyplexes were added dropwise to the MDA-NM-231 cells and after four h, the Opti-MEM media was removed and replaced with DMEM/10% serum. Twenty-four hours later, the cells were lysed, and the luciferase activity was measured

For series [3] the following is noted: prior study [43]; cited from earlier work.
For a further series, the system named is human cells. As to conditions: cited from earlier work.
The mark [4] stands for this setting: ratio mRNA:polymer 1:12 (wt:wt).

Turning to “H2K4b: four-branched HK polymer on three-lysine core, each branch R = KHKHHKHHKHHKHHKHHKHK- (SEQ ID NO: 5) (also: one of four branches on a three-lysine core)”, the “carrier of DNA plasmids (in words)” value in series [1] is on record as “good carrier of large molecular weight DNA plasmids”. Moreover, the “binding/release of mRNA and polyplex stability on exposure to heparin (in words)” value in the series on mRNA was “too stable”. Also, in series [2], the “carrier of siRNA (in words)” value is listed as “poor carrier of relatively low molecular weight siRNA”. Besides, the “RLU/μg-Protein (luciferase activity)” value was found to be 546.7 ± 70.1 RLU/μg-Protein in the series with MDA-MB-231 cells (ratio mRNA:polymer 1:4 (wt:wt)), 132.3 ± 58.5 RLU/μg-Protein in the series with MDA-MB-231 cells (ratio mRNA:polymer 1:8 (wt:wt)) and 194.7 ± 18.4 RLU/μg-Protein with MDA-MB-231 cells (setting [4]).
Regarding “H3K(1+H)4b: four-branched HK polymer, each branch R = KHHHKHHHKHHHKHHHHK- (SEQ ID NO: 12) (also: one of four branches on a branched lysine core)”, in the series with MDA-MB-231 cells, the “effectiveness as carrier of mRNA (in words)” value (“effectiveness as carrier” below) is listed as “poor carriers of mRNA”. Besides, the “RLU/μg-Protein (luciferase activity)” value is recorded as 24.3 ± 4.5 RLU/μg-Protein in the series on MDA-MB-231 cells (ratio mRNA:polymer 1:4 (wt:wt)), 15.0 ± 3.6 RLU/μg-Protein in the series with MDA-MB-231 cells (ratio mRNA:polymer 1:8 (wt:wt)) and 7.3 ± 2.5 RLU/μg-Protein in the series with MDA-MB-231 cells (setting [4]).
As for “H3K(1,3+H)4b: four-branched HK polymer, each branch R = KHHHKHHHHKHHHKHHHHK- (SEQ ID NO: 14) (also: one of four branches on a branched lysine core)”, in the series on MDA-MB-231 cells (4:1 ratio (HK:mRNA; wt:wt)), the “fold less effective in transfecting mRNA compared to H3K(+H)4b” value is given as “about 2.5 fold”. The results for the “RLU/μg-Protein (luciferase activity)” value in the series on MDA-MB-231 cells (ratio mRNA:polymer 1:4 (wt:wt)), with MDA-MB-231 cells (ratio mRNA:polymer 1:8 (wt:wt)) and in the series on MDA-MB-231 cells (setting [4]) were 518.3 ± 134.7 RLU/μg-Protein, 427.7 ± 18.1 RLU/μg-Protein and 378 ± 5.2 RLU/μg-Protein, respectively.
As to “H3K(3+H)4b: four-branched HK polymer, each branch R = KHHHKHHHHKHHHKHHHK- (SEQ ID NO: 13) (also: one of four branches on a branched lysine core)”, the “effectiveness as carrier” value in the series with MDA-MB-231 cells was “poor carriers of mRNA”. For the same substance, the “RLU/μg-Protein (luciferase activity)” value was determined as 61.7 ± 5.7 RLU/μg-Protein with MDA-MB-231 cells (ratio mRNA:polymer 1:4 (wt:wt)), 68.7 ± 3.1 RLU/μg-Protein in the series with MDA-MB-231 cells (ratio mRNA:polymer 1:8 (wt:wt)) and 59.0 ± 7.5 RLU/μg-Protein with MDA-MB-231 cells (setting [4]).
On to “H3k4b (KHHHKHHHKHHHKHHHK; also: one of four branches on a branched lysine core)”, for which the “antimicrobial activity (in words)” value in series [3] is recorded as “greater antimicrobial activity”. For the same substance, the “cytotoxicity to human cells (in words)” value in the series with human cells is “no observed cytotoxicity to human cells”.
Take “H4K4b: four-branched HK polymer, each branch R = KHHHHKHHHHKHHHHKHHHHK- (SEQ ID NO: 11) (also: one of four branches on a branched lysine core)”: the “mRNA transfection relative to H3K(+H)4b (in words)” value in the series with MDA-MB-231 cells was “did not enhance mRNA transfection”. In addition, the “effectiveness as carrier” value in the series with MDA-MB-231 cells was “effective carriers of mRNA”. In addition, the “RLU/μg-Protein (luciferase activity)” value was found to be 896.4 ± 112.6 RLU/μg-Protein with MDA-MB-231 cells (ratio mRNA:polymer 1:4 (wt:wt)), 821.8 ± 115.6 RLU/μg-Protein with MDA-MB-231 cells (ratio mRNA:polymer 1:8 (wt:wt)) and 522.4 ± 69.2 RLU/μg-Protein in the series with MDA-MB-231 cells (setting [4]).
In the case of “H-H3K(+H)4b: four-branched HK polymer, each branch R = HKHHHKHHHKHHHHKHHHK- (SEQ ID NO: 9) (also: one of four branches on a branched lysine core)”, in the series on MDA-MB-231 cells, the “mRNA transfection relative to H3K(+H)4b (in words)” value is listed as “did not improve mRNA transfection more than H3K(+H)4b”. In addition, the “effectiveness as carrier” value in the series on MDA-MB-231 cells is listed as “effective carriers of mRNA; also recorded: markedly more effective as a carrier of mRNA”. The figures for the “RLU/μg-Protein (luciferase activity)” value in the series on MDA-MB-231 cells (ratio mRNA:polymer 1:4 (wt:wt)), with MDA-MB-231 cells (ratio mRNA:polymer 1:8 (wt:wt)) and with MDA-MB-231 cells (setting [4]) were 1107.5 ± 140.4 RLU/μg-Protein, 874.6 ± 65.2 RLU/μg-Protein and 676.4 ± 25.7 RLU/μg-Protein, respectively.
